Results published in ChEMBL document CHEMBL5380869, “Discovery of an Oral, Beyond-Rule-of-Five Mcl-1 Protein-Protein Interaction Modulator with the Potential of Treating Hematological Malignancies” (J Med Chem, 2023).
≈ marks a conversion by molar mass, not a printed value.

Legend:
[1] = Lipophilicity, CHI logD of compound at pH 7.4 by UPLC-TOF analysis; assay type: physicochemical; conditions: buffer
[2] = Intrinsic clearance in human liver microsomes measured upto 60 mins by LC-MS/MS analysis; assay type: ADME, Microsome; conditions: read-out: CLH
[3] = Inhibition of terbium-labelled Mcl-1 (unknown origin)/Bim BH3 peptide (H3N-(C/Cy5Mal)-WIAQELRRIGDEFN-OH) (unknown origin) interaction assessed as displacement of Cy5-labeled Bim BH3 peptide by TR-HTRF assay
[4] = Thermodynamic (equilibrium) solubility of the compound measured after 3 days agitation in pH 2 buffer by LC-MS/MS analysis; assay type: physicochemical; conditions: time 3 day, read-out: Therm_solubility
[5] = Cardiotoxicity risk in human iPSC-CM assessed as calcium transients at 1 uM by CTCM assay; assay type: toxicity, cell-based
[6] = Cardiotoxicity risk in human iPSC-CM assessed as calcium transients at 10 uM by CTCM assay; assay type: toxicity, cell-based
MOLP-8 = test: Induction apoptosis in human MOLP8 cells assessed as cell killing measured after 2 hrs by Caspase-Glo 3/7 Assay; assay type: functional, cell-based; conditions: MOLP-8, 2 h
[7] = Thermodynamic (equilibrium) solubility of the compound measured after 3 days agitation in pH 7 buffer by LC-MS/MS analysis; assay type: physicochemical; conditions: time 3 day, read-out: Therm_solubility
[8] = Intrinsic clearance in mouse liver microsomes measured upto 60 mins by LC-MS/MS analysis; assay type: ADME, Microsome; conditions: read-out: CLH
[9] = Cardiotoxicity risk in human iPSC-CM assessed as calcium transients at 5 uM by CTCM assay; assay type: toxicity, cell-based
Cytochrome P450 2D6 = Cytochrome P450 2D6 (Homo sapiens, UniProt P10635); test: Inhibition of human CYP2D6 assessed as fluorescent metabolites by CYP450 inhibition assay; assay type: ADME
[10] = Cardiotoxicity risk in human iPSC-CM assessed as calcium transients at 3 uM by CTCM assay; assay type: toxicity, cell-based
Cytochrome P450 2C19 = Cytochrome P450 2C19 (Homo sapiens, UniProt P33261); test: Inhibition of human CYP2C19 assessed as fluorescent metabolites by CYP450 inhibition assay; assay type: ADME
[11] = Fraction unbound in human plasma at 5 uM incubated for 4.5 hrs by rapid equilibrium dialysis; assay type: ADME, cell-free
Cytochrome P450 1A2 = molecular target: T1, Cytochrome P450 1A2 (Homo sapiens, UniProt P05177); test: Inhibition of human CYP1A2 assessed as fluorescent metabolites by CYP450 inhibition assay; assay type: ADME
T1 sequence (P05177 whole entry): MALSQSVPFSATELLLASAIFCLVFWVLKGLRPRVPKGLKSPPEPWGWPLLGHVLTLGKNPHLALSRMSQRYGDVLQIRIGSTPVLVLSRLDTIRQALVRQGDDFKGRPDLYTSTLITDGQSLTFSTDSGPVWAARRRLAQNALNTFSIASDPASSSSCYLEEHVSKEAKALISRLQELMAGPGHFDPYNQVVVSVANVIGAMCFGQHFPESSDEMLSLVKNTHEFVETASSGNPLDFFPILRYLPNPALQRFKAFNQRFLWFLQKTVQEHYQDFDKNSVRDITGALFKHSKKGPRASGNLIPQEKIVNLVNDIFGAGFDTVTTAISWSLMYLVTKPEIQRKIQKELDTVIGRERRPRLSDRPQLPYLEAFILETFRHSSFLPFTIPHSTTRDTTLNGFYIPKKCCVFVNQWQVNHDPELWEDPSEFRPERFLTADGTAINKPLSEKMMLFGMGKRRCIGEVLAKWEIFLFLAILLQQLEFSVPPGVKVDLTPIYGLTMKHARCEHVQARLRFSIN

Cytochrome P450 2C9 = Cytochrome P450 2C9 (Homo sapiens, UniProt P11712); test: Inhibition of human CYP2C9 assessed as fluorescent metabolites by CYP450 inhibition assay; assay type: ADME
[12] = Fraction unbound in mouse plasma at 5 uM incubated for 4.5 hrs by rapid equilibrium dialysis; assay type: ADME, cell-free
Cytochrome P450 2C8 = molecular target: T2, Cytochrome P450 2C8 (Homo sapiens, UniProt P10632); test: Inhibition of human CYP2C8 assessed as fluorescent metabolites by CYP450 inhibition assay; assay type: ADME
T2 sequence (P10632 whole entry): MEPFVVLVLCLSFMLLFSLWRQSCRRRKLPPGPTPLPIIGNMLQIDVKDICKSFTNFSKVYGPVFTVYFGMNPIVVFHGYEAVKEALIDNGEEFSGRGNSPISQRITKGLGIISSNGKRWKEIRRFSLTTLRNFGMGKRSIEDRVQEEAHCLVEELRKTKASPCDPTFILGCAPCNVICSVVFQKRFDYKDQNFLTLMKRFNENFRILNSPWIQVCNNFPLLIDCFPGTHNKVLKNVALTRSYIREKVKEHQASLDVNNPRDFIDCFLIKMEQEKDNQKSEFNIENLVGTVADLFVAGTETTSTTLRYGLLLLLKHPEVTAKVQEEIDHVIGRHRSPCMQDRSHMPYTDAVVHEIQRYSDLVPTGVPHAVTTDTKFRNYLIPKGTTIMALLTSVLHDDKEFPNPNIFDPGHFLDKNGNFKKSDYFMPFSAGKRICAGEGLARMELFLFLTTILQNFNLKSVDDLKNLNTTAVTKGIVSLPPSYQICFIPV

[13] = Lipophilicity, CHI logD of compound at pH 2.6 by UPLC-TOF analysis; assay type: physicochemical; conditions: buffer
[14] = Lipophilicity, CHI logP of compound at pH 7.4 by UPLC-TOF analysis; assay type: physicochemical; conditions: buffer, read-out: logP

Chain of Cytochrome P450 2D6 (P10635 whole entry): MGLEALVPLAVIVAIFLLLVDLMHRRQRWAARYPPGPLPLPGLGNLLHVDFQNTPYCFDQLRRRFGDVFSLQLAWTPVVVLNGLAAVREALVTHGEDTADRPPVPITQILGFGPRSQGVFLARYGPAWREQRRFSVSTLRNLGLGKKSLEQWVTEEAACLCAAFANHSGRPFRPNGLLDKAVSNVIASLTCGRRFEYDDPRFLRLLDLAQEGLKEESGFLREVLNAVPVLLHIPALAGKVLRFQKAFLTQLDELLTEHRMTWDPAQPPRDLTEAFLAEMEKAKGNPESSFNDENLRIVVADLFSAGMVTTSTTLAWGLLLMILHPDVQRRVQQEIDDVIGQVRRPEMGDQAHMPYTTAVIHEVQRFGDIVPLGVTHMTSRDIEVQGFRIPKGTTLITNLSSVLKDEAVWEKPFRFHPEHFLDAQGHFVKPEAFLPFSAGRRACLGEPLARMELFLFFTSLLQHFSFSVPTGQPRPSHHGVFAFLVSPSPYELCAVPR
Chain of Cytochrome P450 2C19 (P33261 whole entry): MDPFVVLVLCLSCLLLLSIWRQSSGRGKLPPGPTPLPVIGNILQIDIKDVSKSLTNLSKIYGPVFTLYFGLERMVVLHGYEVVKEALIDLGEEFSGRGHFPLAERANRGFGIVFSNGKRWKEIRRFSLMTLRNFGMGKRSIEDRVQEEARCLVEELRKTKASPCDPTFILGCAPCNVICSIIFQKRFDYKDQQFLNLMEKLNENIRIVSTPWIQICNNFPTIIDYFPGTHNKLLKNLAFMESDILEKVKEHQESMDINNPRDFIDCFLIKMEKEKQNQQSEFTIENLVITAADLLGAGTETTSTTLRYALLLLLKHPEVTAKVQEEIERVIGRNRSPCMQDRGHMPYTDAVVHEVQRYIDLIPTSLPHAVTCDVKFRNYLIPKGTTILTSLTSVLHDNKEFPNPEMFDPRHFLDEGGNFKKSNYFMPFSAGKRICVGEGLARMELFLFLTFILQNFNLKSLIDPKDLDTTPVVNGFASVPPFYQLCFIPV
Chain of Cytochrome P450 2C9 (P11712 whole entry): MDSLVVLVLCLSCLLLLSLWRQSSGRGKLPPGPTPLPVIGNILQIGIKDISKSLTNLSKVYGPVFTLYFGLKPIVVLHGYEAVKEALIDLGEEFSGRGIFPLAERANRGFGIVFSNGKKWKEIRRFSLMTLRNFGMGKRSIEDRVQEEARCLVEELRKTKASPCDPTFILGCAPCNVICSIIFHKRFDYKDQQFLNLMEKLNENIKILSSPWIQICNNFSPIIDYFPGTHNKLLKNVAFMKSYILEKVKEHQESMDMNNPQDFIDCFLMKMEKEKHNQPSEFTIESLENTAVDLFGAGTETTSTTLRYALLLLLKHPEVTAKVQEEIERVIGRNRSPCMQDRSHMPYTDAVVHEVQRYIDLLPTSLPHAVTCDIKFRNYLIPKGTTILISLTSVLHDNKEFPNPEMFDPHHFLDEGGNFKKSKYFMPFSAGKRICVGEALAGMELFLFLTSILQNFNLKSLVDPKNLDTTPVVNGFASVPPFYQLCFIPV

| Structure (SMILES) | chromatographic logD [1] | microsomal CLint [2] [µL/min/mg] | Ki [3] [nM] | solubility thermodynamic at 72 h [4] [µM] | solubility thermodynamic at 72 h [7] [µM] | microsomal CLint [8] [µL/min/mg] | inhibition (INH) (Cytochrome P450 2D6) | inhibition (INH) (Cytochrome P450 2C19) | Fu [11] [%] | inhibition (INH) (Cytochrome P450 1A2) | inhibition (INH) (Cytochrome P450 2C9) | Fu [12] [%] | IC50 (Cytochrome P450 2C8) [nM] | chromatographic logD [13] | chromatographic logD [14] | Activity [5] | Activity [6] | AC50 (MOLP-8) [nM] | Activity [9] | Activity [10] |
| --- | --- | --- | --- | --- | --- | --- | --- | --- | --- | --- | --- | --- | --- | --- | --- | --- | --- | --- | --- | --- |
| CO[C@H]1/C(F)=C/C[C@H](C)[C@@H](C)S(=O)(=O)NC(=O)c2ccc3c(c2)N(C[C@@H]2CCO[C@H]21)C[C@@]1(CCCc2cc(Cl)ccc21)CO3 | 3 | 22 | 0.22 | < 0.5 | 8.3 (≈ 5.37 µg/mL) | 54 |  |  |  |  |  |  |  |  |  | Non-Toxic | Non-Toxic | 191 | Non-Toxic |  |
| COCCOCCn1nc(C)c2c1CSCc1cc(n(C)n1)CSc1cc(c3ccccc3c1)OCCCn1c(C(=O)O)c(C)c3c-2c(Cl)ccc31 | 2.4 | 81 | 0.015 | < 0.5 | 508 (≈ 386 µg/mL) | > 347 | Not Active | Not Active | 0.08 | Not Active | Not Active | 0.03 | 501 |  |  | Non-Toxic |  | 12 |  | Non-Toxic |
| COc1nn(C)cc1C(=O)N[S@@]1(=O)=NC(=O)c2ccc3c(c2)N(C[C@@H]2CC[C@H]2[C@@H](OC)/C=C/C[C@H](C)C1)C[C@@]1(CCCc2cc(Cl)ccc21)CO3 | 3.4 | < 7.7 | 0.08 | < 0.1 | 118 (≈ 86.9 µg/mL) | < 7.7 | Not Active | Not Active | 0.06 | Not Active | Not Active | 0.02 | 3980 |  |  | Non-Toxic | Toxic | 69.4 |  | Non-Toxic |

Now those with a lower Ki [3], led by results:

| chromatographic logD [1] | microsomal CLint [2] [µL/min/mg] | Ki [3] [nM] | solubility thermodynamic at 72 h [4] [µM] | solubility thermodynamic at 72 h [7] [µM] | microsomal CLint [8] [µL/min/mg] | inhibition (INH) (Cytochrome P450 2D6) | inhibition (INH) (Cytochrome P450 2C19) | Fu [11] [%] | inhibition (INH) (Cytochrome P450 1A2) | inhibition (INH) (Cytochrome P450 2C9) | Fu [12] [%] | IC50 (Cytochrome P450 2C8) [nM] | chromatographic logD [13] | chromatographic logD [14] | Structure (SMILES) | Activity [5] | Activity [6] | AC50 (MOLP-8) [nM] | Activity [9] | Activity [10] |
| --- | --- | --- | --- | --- | --- | --- | --- | --- | --- | --- | --- | --- | --- | --- | --- | --- | --- | --- | --- | --- |
| 3.1 | < 7.7 | 0.014 | 48 (≈ 44.4 µg/mL) | < 0.1 | < 7.7 | Not Active | Not Active | 0.12 | Not Active | Not Active | 0.08 | 6310 |  |  | COc1nn(C)cc1C(=O)N[S@@]1(=O)=NC(=O)c2ccc3c(c2)N(C[C@@H]2CCO[C@H]2[C@](CN2CCN4CCOC[C@@H]4C2)(OC)/C(F)=C/C[C@H](C)C1)C[C@@]1(CCCc2cc(Cl)ccc21)CO3 | Non-Toxic | Non-Toxic | 28.6 |  | Non-Toxic |
|  | 19 | 0.014 | 69 (≈ 55.3 µg/mL) | 110 (≈ 88.2 µg/mL) | < 7.7 | Not Active | Not Active | 0.16 | Not Active | Not Active | 0.13 |  | 2.5 | 2.9 | CO[C@@]1(CN2CCN3CCOC[C@@H]3C2)/C(F)=C/C[C@H](C)[C@@H](C)S(=O)(=O)NC(=O)c2ccc3c(c2)N(C[C@@H]2CCO[C@H]21)C[C@@]1(CCCc2cc(Cl)ccc21)CO3 | Non-Toxic |  | 138 |  | Non-Toxic |
